“Also recorded” adds a separate entry of the source.
What was measured:
LdtMt1 = LdtMt1 (Mycobacterium tuberculosis, UniProt O53638); type: binding, M. tuberculosis
LdtMt2 [1] = target: T1, LdtMt2 (Mycobacterium tuberculosis, UniProt I6Y9J2); type: binding, M. tuberculosis
LdtMt2 [2] = target: T1, LdtMt2; test: biochemical; parameters: species or system M. tuberculosis; conditions: read-out: kinact/Kapp ratio
[3] = test system: LdtMt2 variants Y318F, H336N, H352N and C354S; type: binding, M. tuberculosis
[4] = test system: mutant LdtMt2 (Y318A, Y318F, H336N, H352A, H352N, C354A, C354S); type: binding, M. tuberculosis

T1 sequence (I6Y9J2 56-408 limits assumed): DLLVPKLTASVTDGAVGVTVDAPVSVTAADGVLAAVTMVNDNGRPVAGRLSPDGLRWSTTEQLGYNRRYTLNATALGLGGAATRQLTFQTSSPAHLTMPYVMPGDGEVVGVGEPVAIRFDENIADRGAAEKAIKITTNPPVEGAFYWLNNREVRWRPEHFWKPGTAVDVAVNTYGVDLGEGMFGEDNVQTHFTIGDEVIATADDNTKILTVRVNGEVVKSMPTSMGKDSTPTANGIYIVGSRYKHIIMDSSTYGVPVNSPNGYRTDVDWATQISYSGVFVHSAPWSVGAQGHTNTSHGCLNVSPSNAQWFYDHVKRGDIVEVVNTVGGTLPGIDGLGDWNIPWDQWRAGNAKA
LdtMt1, sequence (O53638 32-251 limits assumed): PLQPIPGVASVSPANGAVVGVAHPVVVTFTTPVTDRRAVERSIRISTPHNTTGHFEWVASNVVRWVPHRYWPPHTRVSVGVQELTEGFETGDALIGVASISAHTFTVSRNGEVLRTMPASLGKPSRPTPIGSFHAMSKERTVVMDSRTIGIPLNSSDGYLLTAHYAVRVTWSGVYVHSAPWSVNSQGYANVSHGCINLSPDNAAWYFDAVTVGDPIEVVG

| Compound | reaction and covalent adduct formation (LdtMt1) | reaction and covalent adduct formation (LdtMt2 [1]) | kinact/KI (LdtMt2 [2]) | binding affinity [3] | adduct formation [4] |
| --- | --- | --- | --- | --- | --- |
| COC(=O)CSC1=C(C(=O)[O-])N2C(=O)[C@H]([C@@H](C)O)[C@H]2[C@H]1C.[Na+] [T205, sodium (4R,5S,6S)-6-((R)-1-hydroxyethyl)-3-((2-methoxy-2-oxoethyl)thio)-4-methyl-7-oxo-1-azabicyclo[3.2.0]hept-2-ene-2 carboxylate] | reacted and formed covalent adducts | reacted and formed covalent adducts | – | – | – |
| CCCOC(=O)CSC1=C(C(=O)O)N2C(=O)[C@H]([C@@H](C)O)[C@H]2[C@H]1C [T206] | reacted and formed covalent adducts | reacted and formed covalent adducts | – | – | – |
| C[C@@H](O)[C@H]1C(=O)N2C(C(=O)O)=C(SCC(=O)OC3CCCCC3)[C@H](C)[C@H]12 [T208] | reacted and formed covalent adducts | reacted and formed covalent adducts | 9330 M⁻¹ s⁻¹ | – | – |
| CSC1=C(C(=O)O)N2C(=O)[C@H]([C@@H](C)O)[C@H]2[C@H]1C [T210] | reacted and formed covalent adducts | reacted and formed covalent adducts | – | poor binding affinities | – |
| C[C@@H](O)[C@H]1C(=O)N2C(C(=O)[O-])=C(SC3Cn4cnc[n+]4C3)[C@H](C)[C@H]12 (stereo partly drawn) [biapenem] | – | – | – | – | no adducts could be detected |
| C[C@@H](O)[C@H]1C(=O)N2C(C(=O)O)=C([C@H]3CCCO3)S[C@H]12 [faropenem] | – | – | – | either a complete loss of or no appreciable binding affinities | same adducts were detected; also recorded: failed to produce any covalent adduct |
| C[C@@H](O)[C@H]1C(=O)N2C(C(=O)O)=C(SC3CN(C4=NCCS4)C3)[C@H](C)[C@H]12 [tebipenem] | – | – | – | either a complete loss of or no appreciable binding affinities | same adducts were detected; also recorded: failed to produce any covalent adduct |

Reference: patent US10695322B2 (priority 2016, dated 2020)
